Reference: patent US20060128702A1, “Heterocyclic and bicyclic compounds, compositions and methods” (priority 2004, published 2006)

What was measured:
[1] = system: IL-6 (interleukin-6) expression; assay: IL-6 ELISA (inflammation assay in HAECs); type: cell-based; details: endothelial cell media; TNFα (0.5 ng/mL) or glycated human serum albumin (300 μg/mL), 18-24 h; read-out: IC50, IL-6 enzyme-linked immunosorbent assay
Experimental: (§1) For inflammation assays, human aortic endothelial cells (HAECs) in 96 well plates were washed once with treatment medium (basal medium containing 1% FBS). Cells were treated with an inflammatory agent such as TNFα (0.5 ng/mL) or glycated human serum albumin (US Biologicals) as source of advanced glycation end products (AGEs) (300 μg/mL) for 18-24 h in the presence or absence of specified amount of compound. Cell supernatants were collected and used for measuring MCP-1 (monocyte chemoattractant protein 1) or IL-6 (interleukin-6) expression by ELISA. Cell layers were washed and used for determining vascular cell adhesion molecule-1 (VCAM-1) expression.
IL-6 expression in endothelial cell media were determined using DuaSet IL-6 ELISA kit from R&D Systems (Cat No DY206) as described by the manufacturer. Mouse anti-human IL-6 antibody was used as the capture antibody and biotinylated goat anti-human IL-6 was used as detection antibody. Culture medium was incubated with the capture antibody (in 96-well plate) for 2 h at room temperature. Wells were washed three times with wash buffer (0.05% Tween-20 in PBS) followed by incubation with detection antibody for 2 h at room temperature. The wells were then incubated with streptavidin HRP and color development was read at 450 nm in a microplate reader.

[2] = system: vascular cell adhesion molecule-1 (VCAM-1) expression; assay: VCAM-1 ELISA (inflammation assay in HAECs); type: cell-based; details: HAEC cell layers; TNFα (0.5 ng/mL) or glycated human serum albumin (300 μg/mL), 18-24 h; read-out: IC50, VCAM-1 enzyme-linked immunosorbent assay
Experimental: as §1
The cells were fixed cells with 100% methanol for 10 min at room temperature. The methanol was removed and the plate was air-dried. 100 μl of 1:1000 diluted primary antibody (polyclonal goat anti-human VCAM-1—R&D Systems #BBA19) was then added and incubated for 2 h at 37 C. The cells were washed with PBS and 100 μl of 1:5000 dilution of secondary antibody (rabbit anti-goat IgG-HRP—Zymed #81-1620) was added and incubated for 1 h at room temperature. Cells were washed and 100 μl of substrate solution (R&D Systems# DY999) was added and incubated for 20 min in the dark at room temp. 50 μl of stop solution (2N sulfuric acid) was added to the wells and absorbency at 450 nm was noted.

[3] = system: MCP-1 (monocyte chemoattractant protein 1) expression; assay: MCP-1 ELISA (inflammation assay in HAECs); type: cell-based; details: Endothelial cell; HAEC supernatants; TNFα (0.5 ng/mL) or glycated human serum albumin (300 μg/mL), 18-24 h; read-out: IC50, MCP-1 enzyme-linked immunosorbent assay
Experimental: as §1
MCP-1 ELISA was carried out using Quantikine Human MCP-1 kit as described by the manufacturer (R&D Systems, Inc.). Mouse anti-human MCP-1 was used as the capture antibody and HRP (horse radish peroxidase)-conjugated goat anti-human MCP-1 antibody was used as detection antibody. Culture medium was incubated with the capture antibody (in 96-well plate) for 2 h at room temperature. Wells were washed three times with wash buffer (0.05% Tween-20 in PBS) followed by incubation with detection antibody for 2 h at room temperature. Color development was read at […] in a microplate reader.

[4] = system: human aortic smooth muscle cells; assay: Smooth muscle cell proliferation assay; type: cell-based; details: human aortic SMC, growth medium containing serum, 24 h post treatment; for IC50: read-out: Effect: concentration giving 50% inhibition of smooth muscle cell proliferation
Experimental: Primary cultures of human aortic smooth muscle cells were obtained from Clonetics. SMC were initially grown in T-75 flasks prior to seeding in 96 well plates. The 96-well plates were seeded with 4000 cells/well. The following day cells were washed with serum free medium and left in serum free media for 24 hours for serum starvation. The next day cells received growth medium containing serum with or without compound. The 24 h post treatment cell proliferation was assayed either assessing the incorporation of radiolabeled thymidine to DNA or using a non-radioactive cell proliferation kit from Promega (CellTiter AQ).

SMILES | melting point | IC50 [2] | IC50 [3] | other results
COc1ccc(Nc2cc(-c3ccccc3)nc3ccccc23)cc1Cl [E 5, (3-Chloro-4-methoxy-phenyl)-(2-phenyl-quinolin-4-yl)-amine] | 272 to 274 °C |  |  | IC50 [1]: 2000 nM
Fc1ccc(-c2cc(-n3ccc(C(F)(F)F)n3)c3ccccc3n2)cc1 [E 11, 2-(4-Fluoro-phenyl)-4-(3-trifluoromethyl-pyrazol-1-yl)-quinoline] |  |  |  | IC50 [4]: 1000 nM
c1ccc(-c2cc(-n3ccc4ccccc43)c3ccccc3n2)cc1 [E 9, 4-Indol-1-yl-2-phenyl-quinoline] | 100 to 102 °C |  |  | 
COc1ccc(Nc2nc(-c3ccc(F)cc3)cc3ccc(C)cc23)cc1Cl [E 6, (3-Chloro-4-methoxy-phenyl)-[3-(4-fluoro-phenyl)-7-methyl-isoquinolin-1-yl]-amine] | 154 to 156 °C |  |  | 
Clc1ccc2c(ccn2-c2cc(-c3ccccc3)nc3ccccc23)c1 [E 10, 4-(5-Chloro-indol-1-yl)-2-phenyl-quinoline] | 148 to 150 °C |  |  | 
COc1ccc(Nc2nc(-c3ccncc3)nc3ccccc23)cc1Cl [E 2, (3-Chloro-4-methoxy-phenyl)-(2-pyridin-4-yl-quinazolin-4-yl)-amine] | > 220 °C |  |  | 
COc1ccc(Nc2nc(-c3ccc(F)cc3)cc3ccc(C)cc23)cc1F [E 7, (3-Fluoro-4-methoxy-phenyl)-[3-(4-fluoro-phenyl)-7-methyl-isoquinolin-1-yl]-amine] | 163 to 165 °C |  | 5000 nM | 
Oc1ccc(-c2nc(-c3ccccc3)nc3ccccc23)c(O)c1 [E 4, 4-(2-Phenyl-quinazolin-4-yl)-benzene-1,3-diol] | 178 to 180 °C |  |  | 
COc1cc(Nc2cc(-c3ccc(F)cc3)nc3ccccc23)ccc1Cl [E 13, (4-Chloro-3-methoxy-phenyl)-[2-(4-fluoro-phenyl)-quinolin-4-yl]-amine] | 274 to 276 °C | 3500 nM | 5000 nM | 
Oc1ccc(-c2nc(-c3ccncc3)nc3ccccc23)c(O)c1 [E 3, 4-(2-Pyridin-4-yl-quinazolin-4-yl)-benzene-1,3-diol] | 280 to 282 °C |  |  | 

Second part, led by results:

melting point | IC50 [2] | IC50 [3] | SMILES | other results
128 to 130 °C | 1000 nM | 1000 nM | FC(F)(F)Oc1ccc(Nc2cc(-n3ccc(C(F)(F)F)n3)c3ccccc3n2)cc1 [E 19, (4-Trifluoromethoxy-phenyl)-[4-(3-trifluoromethyl-pyrazol-1-yl)-quinolin-2-yl]-amine] | 
194 to 196 °C | 8100 nM | 9000 nM | CS(=O)(=O)c1ccc(Nc2cc(-n3ccc(C(F)(F)F)n3)c3ccccc3n2)cc1 [E 23, (4-Methanesulfonyl-phenyl)-[4-(3-trifluoromethyl-pyrazol-1-yl)-quinolin-2-yl]-amine] | 
194 to 196 °C |  |  | CS(=O)(=O)c1ccc(-c2cc(-n3ccc(C(F)(F)F)n3)c3ccccc3n2)cc1 [E 17, 2-(4-Methanesulfonyl-phenyl)-4-(3-trifluoromethyl-pyrazol-1-yl)-quinoline] | 
260 °C | 3600 nM | 2100 nM | COc1ccc(Nc2cc(-c3ccc(F)cc3)nc3ccccc23)cc1Cl [E 8, (3-Chloro-4-methoxy-phenyl)-[2-(4-fluoro-phenyl)-quinolin-4-yl]-amine] | inhibition at 1 µM ([4]; at 1 μM, read-out: Effect: % inhibition of smooth muscle cell proliferation): 77%
98 to 100 °C | 5000 nM | 4200 nM | FC(F)(F)c1ccn(-c2cc(-c3ccc4c(c3)OCO4)nc3ccccc23)n1 [E 15, 2-Benzo[1,3]dioxol-5-yl-4-(3-trifluoromethyl-pyrazol-1-yl)-quinoline] | 
220 to 222 °C | 610 nM | 430 nM | CNS(=O)(=O)c1ccc(Nc2cc(-n3ccc(C(F)(F)F)n3)c3ccccc3n2)cc1 [E 21, N-Methyl-4-[4-(3-trifluoromethyl-pyrazol-1-yl)-quinolin-2-ylamino]-benzenesulfonamide] | 
250 to 252 °C | 2100 nM | 750 nM | CNC(=O)c1ccc(Nc2cc(-n3ccc(C(F)(F)F)n3)c3ccccc3n2)cc1 [E 22, N-Methyl-4-[4-(3-trifluoromethyl-pyrazol-1-yl)-quinolin-2-ylamino]-benzamide] | 
118 to 120 °C |  |  | FC(F)(F)c1ccn(-c2cc(N3CCOCC3)nc3ccccc23)n1 [E 20, 2-Morpholin-4-yl-4-(3-trifluoromethyl-pyrazol-1-yl)-quinoline] | 
280 to 282 °C |  |  | COc1ccc(Nc2cc(-c3ccncc3)nc3ccccc23)cc1Cl [E 1, (3-Chloro-4-methoxy-phenyl)-(2-pyridin-4-yl-quinolin-4-yl)-amine] | 
108 to 110 °C |  |  | FC(F)(F)Oc1ccc(-c2cc(-n3ccc(C(F)(F)F)n3)c3ccccc3n2)cc1 [E 18, 2-(4-Trifluoromethoxy-phenyl)-4-(3-trifluoromethyl-pyrazol-1-yl)-quinoline] | IC50 [4]: 2330 nM
116 to 118 °C |  |  | CSc1ccc(-c2cc(-n3ccc(C(F)(F)F)n3)c3ccccc3n2)cc1 [E 16, 2-(4-Methylsulfanyl-phenyl)-4-(3-trifluoromethyl-pyrazol-1-yl)-quinoline] | IC50 [4]: 1160 nM
